Data published in patent US11590116B2 (THERAVANCE BIOPHARMA R&D IP, LLC, priority 2019, dated 2023).

How the values were obtained:
[1] = molecular target: T1, recombinant human ALK5 (TGF-βR1) protein (Homo sapiens, UniProt P36897); assay: Biochemical ALK5 (TGF-βR1) assay to measure pKi (LANCE Ultra ULight kinase assay); details: apparent pKi from pIC50 by Cheng-Prusoff, read-out: ALK5 pKi (converted)
T1 construct: purchased Life Technologies PR9075A
T1 sequence (P36897 34-503): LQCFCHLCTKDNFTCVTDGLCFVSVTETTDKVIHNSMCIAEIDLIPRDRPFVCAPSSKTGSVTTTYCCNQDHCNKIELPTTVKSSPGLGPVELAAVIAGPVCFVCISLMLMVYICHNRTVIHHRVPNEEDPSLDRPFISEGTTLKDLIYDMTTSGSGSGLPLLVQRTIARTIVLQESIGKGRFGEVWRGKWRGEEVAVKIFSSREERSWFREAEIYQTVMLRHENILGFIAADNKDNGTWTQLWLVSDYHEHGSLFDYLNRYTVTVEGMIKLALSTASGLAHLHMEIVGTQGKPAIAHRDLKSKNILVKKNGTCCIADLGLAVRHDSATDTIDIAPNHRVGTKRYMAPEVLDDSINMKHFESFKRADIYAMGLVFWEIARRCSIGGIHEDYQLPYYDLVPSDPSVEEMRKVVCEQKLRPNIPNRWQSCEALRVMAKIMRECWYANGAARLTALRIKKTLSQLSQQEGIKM
Method in brief: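 Compounds (10 μM to 25 pM) preincubated 60 minutes at room temperature with enzyme, then reaction run 60 minutes at 37° C with ATP added as 125 μM (5× final). Stopped with EDTA plus Eu-anti-phospho-Topoisomerase 2-alpha (Thr1342) antibody, TR-FRET read at 665 nm; pIC50 converted to pKi via Cheng-Prusoff.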

[2] = tested on: TGF-β-stimulated SMAD3 phosphorylation in BEAS-2B cells; assay: Cellular ALK5 potency assay, inhibition of TGF-β stimulated pSMAD3 formation in BEAS-2B cells; format: cell-based; details: Homo sapiens; inhibition of TGF-β stimulated pSMAD3 formation, BEAS-2B cells; read-out: BEAS2B pIC50 (converted)
Method in brief: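 BEAS-2B human lung epithelial cells, seeded overnight, were pre-treated with compound in HBSS/25 mM HEPES/1% BSA for 1 h at 37 °C, then stimulated with TGF-β (final 10 ng/mL) for 30 min. Lysates were assayed for pSMAD3 by AlphaLISA; pIC50 came from dose-dependent signal change versus TGF-β-stimulated untreated cells.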

Row | Ki [1] [nM] | Compound | IC50 [2] [nM]
1 | 0.398 to 3.16 | Cc1cccc(-c2nn(C3CCCCO3)cc2-c2ccc3ncc(-c4cnoc4)cc3n2)n1 (centres unmarked) [Compound 203, 4-[6-[3-(6-methyl-2-pyridyl)-1-tetrahydropyran-2-yl-pyrazol-4-yl]-1,5-naphthyridin-3-yl]isoxazole] | 200 to 1260
2 | 0.0398 to 0.316 | Cc1cccc(-c2n[nH]cc2-c2ccc3ncc(N4CCN[C@@H](C(=O)N(C)C)C4)cc3n2)n1 [Compound 204, (2R)-N,N-dimethyl-4-[6-[3-(6-methyl-2-pyridyl)-1H-pyrazol-4-yl]-1,5-naphthyridin-3-yl]piperazine-2-carboxamide] | 25.1 to 158
3 | 0.0398 to 0.316 | Cc1cccc(-c2n[nH]cc2-c2ccc3ncc(N4CCC(N5CCN(C)CC5)CC4)cc3n2)n1 [Compound 205, 7-[4-(4-methylpiperazin-1-yl)-1-piperidyl]-2-[3-(6-methyl-2-pyridyl)-1H-pyrazol-4-yl]-1,5-naphthyridine] | 25.1 to 158
4 | 0.0398 to 0.316 | Cc1cccc(-c2[nH]cnc2-c2ccc3ncc(N4CCC5(CC4)CNC5)cc3c2)n1 [Compound 206, 3-(2,7-diazaspiro [3.5]nonan-7-yl)-6-[5-(6-methyl-2-pyridyl)-1H-imidazol-4-yl]quinoline] | 25.1 to 158
5 | 0.0398 to 0.316 | Cc1cccc(-c2nc3ccccn3c2-c2ccc3ncc(-c4nnn5c4CNCC5)cc3n2)n1 [Compound 207, 2-[2-(6-methyl-2-pyridyl)imidazo[1,2-a]pyridin-3-yl]-7-(4,5,6,7-tetrahydrotriazolo[1,5-a]pyrazin-3-yl)-1,5-naphthyridine] | 25.1 to 158
6 | 0.0398 to 0.316 | Cc1cccc(-c2[nH]cnc2-c2ccc3ncc(N4CC[C@H](N)C4)cc3c2)n1 [Compound 208, (3S)-1-[6-[5-(6-methyl-2-pyridyl)-1H-imidazol-4-yl]-3-quinolyl]pyrrolidin-3-amine] | < 20
7 | 0.0398 to 0.316 | Cc1nc(-c2n[nH]cc2-c2ccc3ncc(N4CCCNCC4)cc3c2)ccc1F [Compound 209, 3-(1,4-diazepan-1-yl)-6-[3-(5-fluoro-6-methyl-2-pyridyl)-1H-pyrazol-4-yl]quinoline] | 25.1 to 158
8 | 0.398 to 3.16 | Cc1cccc(-c2[nH]ncc2-c2ccc3ncc(C(=O)O[C@H]4CCNC4)cc3n2)n1 [Compound 210, [(3S)-pyrrolidin-3-yl]6-[5-(6-methyl-2-pyridyl)-1H-pyrazol-4-yl]-1,5-naphthyridine-3-carboxylate] | 25.1 to 158
9 | 0.0398 to 0.316 | Cc1cccc(-c2[nH]ncc2-c2ccc3ncc(C(=O)OCC4CCNCC4)cc3n2)n1 [Compound 211, 4-piperidylmethyl 6-[5-(6-methyl-2-pyridyl)-1H-pyrazol-4-yl]-1,5-naphthyridine-3-carboxylate] | 25.1 to 158
10 | 0.398 to 3.16 | Cc1cccc(-c2n[nH]cc2-c2ccc3ncc(-c4c(C)nn5c4NCCC5)cc3n2)n1 [Compound 212, 2-[3-(6-methyl-2-pyridyl)-1H-pyrazol-4-yl]-7-(2-methyl-4,5,6,7-tetrahydropyrazolo[1,5-a]pyrimidin-3-yl)-1,5-naphthyridine] | 25.1 to 158
11 | 0.0398 to 0.316 | Cc1cccc(-c2[nH]cnc2-c2ccc3ncc(N4CCC(C(=O)O)CC4)cc3c2)n1 [Compound 213, 1-(6-(5-(6-methylpyridin-2-yl)-1H-imidazol-4-yl)quinolin-3-yl)piperidine-4-carboxylic acid] | 200 to 1260
12 | 0.0398 to 0.316 | CNCc1cncc(-c2cnc3ccc(-c4c[nH]nc4-c4cccc(C)n4)nc3c2)c1 [Compound 214, N-methyl-1-[5-[6-[3-(6-methyl-2-pyridyl)-1H-pyrazol-4-yl]-1,5-naphthyridin-3-yl]-3-pyridyl]methanamine] | 25.1 to 158
13 | < 0.0316 | Cc1cccc(-c2n[nH]cc2-c2ccc3ncc(-c4ccnnc4)cc3n2)n1 [Compound 215, 2-[3-(6-methyl-2-pyridyl)-1H-pyrazol-4-yl]-7-pyridazin-4-yl-1,5-naphthyridine] | < 20
14 | 0.0398 to 0.316 | Cc1cccc(-c2nnn(Cc3ccccc3)c2-c2ccc3ncc(-c4cnn(C5CCCNC5)c4)cc3n2)n1 (centres unmarked) [Compound 216, 2-(1-benzyl-4-(6-methylpyridin-2-yl)-1H-1,2,3-triazol-5-yl)-7-(1-(piperidin-3-yl)-1H-pyrazol-4-yl)-1,5-naphthyridine] | 25.1 to 158
15 | 0.398 to 3.16 | Cc1cccc(-c2n[nH]cc2-c2ccc3ncc(CNCCCN4CCN(C(C)C)CC4)cc3n2)n1 [Compound 218, 3-(4-isopropylpiperazin-1-yl)-N-[[6-[3-(6-methyl-2-pyridyl)-1H-pyrazol-4-yl]-1,5-naphthyridin-3-yl]methyl]propan-1-amine] | 200 to 1260
16 | 0.0398 to 0.316 | Cc1cccc(-c2n[nH]cc2-c2ccc3ncc(N4CC5CNC5C4)cc3n2)n1 (centres unmarked) [Compound 219, 7-(3,6-diazabicyclo[3.2.0]heptan-3-yl)-2-[3-(6-methyl-2-pyridyl)-1H-pyrazol-4-yl]-1,5-naphthyridine] | 25.1 to 158
17 | 0.398 to 3.16 | Cc1cccc(-c2n[nH]cc2-c2ccc3ncc(N4C[C@@H]5C[C@H]4CN5)cc3n2)n1 [Compound 220, 7-[(1S,4S)-2,5-diazabicyclo[2.2.1]heptan-2-yl]-2-[3-(6-methyl-2-pyridyl)-1H-pyrazol-4-yl]-1,5-naphthyridine] | 25.1 to 158
18 | < 0.0316 | Cc1cccc(-c2n[nH]cc2-c2ccc3ncc(-c4cnn(CCN(C)C)c4)cc3n2)n1 [Compound 221, N,N-dimethyl-2-[4-[6-[3-(6-methyl-2-pyridyl)-1H-pyrazol-4-yl]-1,5-naphthyridin-3-yl]pyrazol-1-yl]ethanamine] | 25.1 to 158
19 | 0.0398 to 0.316 | Cc1cccc(-c2[nH]cnc2-c2ccc3ncc(NCCC4CCCNC4)cc3c2)n1 (centres unmarked) [Compound 222, 6-[5-(6-methyl-2-pyridyl)-1H-imidazol-4-yl]-N-[2-(3-piperidyl)ethyl]quinolin-3-amine] | 25.1 to 158
20 | 0.0398 to 0.316 | Cc1cccc(-c2n[nH]cc2-c2ccc3ncc(N4CCNC5(CCC5)C4)cc3n2)n1 [Compound 223, 7-(5,8-diazaspiro[3.5]nonan-8-yl)-2-[3-(6-methyl-2-pyridyl)-1H-pyrazol-4-yl]-1,5-naphthyridine] | 25.1 to 158
21 | 0.0398 to 0.316 | Cc1cccc(-c2[nH]cnc2-c2ccc3ncc(-c4cccc(C(=O)OC5CCNCC5)c4)cc3c2)n1 [Compound 224, 4-piperidyl 3-[6-[5-(6-methyl-2-pyridyl)-1H-imidazol-4-yl]-3-quinolyl]benzoate] | 25.1 to 158
22 | 0.0398 to 0.316 | Cc1nc(-c2[nH]cnc2-c2ccc3ncc(-c4cnn(CCN)c4)cc3n2)ccc1F [Compound 225, 2-[4-[6-[5-(5-fluoro-6-methyl-2-pyridyl)-1H-imidazol-4-yl]-1,5-naphthyridin-3-yl]pyrazol-1-yl]ethanamine] | 25.1 to 158
23 | 0.0398 to 0.316 | CC(C)N1CCN(CCNc2cnc3ccc(-c4c[nH]nc4-c4cccc(C(F)F)n4)nc3c2)CC1 [Compound 226, 6-[3-[6-(difluoromethyl)-2-pyridyl]-1H-pyrazol-4-yl]-N-[2-(4-isopropylpiperazin-1-yl)ethyl]-1,5-naphthyridin-3-amine] | 25.1 to 158
24 | 0.0398 to 0.316 | Cc1cccc(-c2[nH]cnc2-c2ccc3ncc(Nc4cnn(C5CNC5)c4)cc3c2)n1 [Compound 227, N-[1-(azetidin-3-yl)pyrazol-4-yl]-6-[5-(6-methyl-2-pyridyl)-1H-imidazol-4-yl]quinolin-3-amine] | 200 to 1260
25 | 0.0398 to 0.316 | Cc1cccc(-c2[nH]cnc2-c2ccc3ncc(C4=CCC(NCc5ccccc5)CC4)cc3n2)n1 (centres unmarked) [Compound 228, N-benzyl-4-[6-[5-(6-methyl-2-pyridyl)-1H-imidazol-4-yl]-1,5-naphthyridin-3-yl]cyclohex-3-en-1-amine] | 200 to 1260
26 | < 0.0316 | CNCCn1ccc(-c2cnc3ccc(-c4c[nH]nc4-c4cccc(C)n4)nc3c2)n1 [Compound 229, N-methyl-2-[3-[6-[3-(6-methyl-2-pyridyl)-1H-pyrazol-4-yl]-1,5-naphthyridin-3-yl]pyrazol-1-yl]ethanamine] | 25.1 to 158
27 | < 0.0316 | Cc1cccc(-c2[nH]cnc2-c2ccc3ncc(N4CCC(NCCSC5CCOC5=O)C4)cc3c2)n1 (centres unmarked) [Compound 230, 3-[2-[[1-[6-[5-(6-methyl-2-pyridyl)-1H-imidazol-4-yl]-3-quinolyl]pyrrolidin-3-yl]amino]ethylsulfanyl]tetrahydrofuran-2-one] | 25.1 to 158
28 | 0.0398 to 0.316 | Cc1cccc(-c2[nH]cnc2-c2ccc3ncc(-c4cccc(C(=O)OCC5CNC5)c4)cc3c2)n1 [Compound 231, azetidin-3-ylmethyl 3-[6-[5-(6-methyl-2-pyridyl)-1H-imidazol-4-yl]-3-quinolyl]benzoate] | 25.1 to 158
